“And” between values parts separate entries of the source, which are not always exact repeats. Identical values can stand only once. “Also recorded” adds a separate entry of the source. Like-named read-outs stand apart in the source and are kept apart here. Blank lines part the entries; values can stand above or below the compound they belong to.
Tests used:
[1] = target: T1, mGlu3 (Homo sapiens, UniProt Q14832); assay: mGlu3 GIRK assay; type: cell-based
[2] = tested on: six other mGlu subtypes; assay: Activity at the six other mGlu subtypes; type: cell-based
[3] = Intrinsic clearance in human liver microsomes; type: in vitro ADME
[4] = Metabolite ID in rat liver microsomes; type: in vitro ADME
[5] = target: mGlu2 (Homo sapiens, UniProt Q14416); assay: mGlu2 GIRK assay; type: cell-based; details: mGlu3 NAM potency versus mGlu2 GIRK
[6] = Intrinsic clearance in rat liver microsomes; type: in vitro ADME
[7] = target: T1, mGlu3; assay: mGlu3 calcium assay, mGlu3 co-expressed with promiscuous G protein Gα15; type: cell-based
[8] = Metabolite ID in human liver microsomes; type: in vitro ADME
[9] = tested on: 68 GPCRs, ion channels and transporters; assay: Lead Profiling Screen at Ricerca, radioligand binding assays; details: screened at 10 μM, 68 targets
[10] = target: mGlu5 (Homo sapiens, UniProt P41594); assay: mGlu5 calcium assay; type: cell-based
[11] = target: T1, mGlu3; assay: Schild analysis, glutamate concentration-response in mGlu3 GIRK; type: cell-based; details: rightward shift and decreased maximal efficacy of glutamate
[12] = IP plasma:brain level; type: in vivo, rat; details: 10 mg/kg IP
[13] = 10% Tween80 in 0.5% methylcellulose

mGlu5, sequence (P41594 21-1212): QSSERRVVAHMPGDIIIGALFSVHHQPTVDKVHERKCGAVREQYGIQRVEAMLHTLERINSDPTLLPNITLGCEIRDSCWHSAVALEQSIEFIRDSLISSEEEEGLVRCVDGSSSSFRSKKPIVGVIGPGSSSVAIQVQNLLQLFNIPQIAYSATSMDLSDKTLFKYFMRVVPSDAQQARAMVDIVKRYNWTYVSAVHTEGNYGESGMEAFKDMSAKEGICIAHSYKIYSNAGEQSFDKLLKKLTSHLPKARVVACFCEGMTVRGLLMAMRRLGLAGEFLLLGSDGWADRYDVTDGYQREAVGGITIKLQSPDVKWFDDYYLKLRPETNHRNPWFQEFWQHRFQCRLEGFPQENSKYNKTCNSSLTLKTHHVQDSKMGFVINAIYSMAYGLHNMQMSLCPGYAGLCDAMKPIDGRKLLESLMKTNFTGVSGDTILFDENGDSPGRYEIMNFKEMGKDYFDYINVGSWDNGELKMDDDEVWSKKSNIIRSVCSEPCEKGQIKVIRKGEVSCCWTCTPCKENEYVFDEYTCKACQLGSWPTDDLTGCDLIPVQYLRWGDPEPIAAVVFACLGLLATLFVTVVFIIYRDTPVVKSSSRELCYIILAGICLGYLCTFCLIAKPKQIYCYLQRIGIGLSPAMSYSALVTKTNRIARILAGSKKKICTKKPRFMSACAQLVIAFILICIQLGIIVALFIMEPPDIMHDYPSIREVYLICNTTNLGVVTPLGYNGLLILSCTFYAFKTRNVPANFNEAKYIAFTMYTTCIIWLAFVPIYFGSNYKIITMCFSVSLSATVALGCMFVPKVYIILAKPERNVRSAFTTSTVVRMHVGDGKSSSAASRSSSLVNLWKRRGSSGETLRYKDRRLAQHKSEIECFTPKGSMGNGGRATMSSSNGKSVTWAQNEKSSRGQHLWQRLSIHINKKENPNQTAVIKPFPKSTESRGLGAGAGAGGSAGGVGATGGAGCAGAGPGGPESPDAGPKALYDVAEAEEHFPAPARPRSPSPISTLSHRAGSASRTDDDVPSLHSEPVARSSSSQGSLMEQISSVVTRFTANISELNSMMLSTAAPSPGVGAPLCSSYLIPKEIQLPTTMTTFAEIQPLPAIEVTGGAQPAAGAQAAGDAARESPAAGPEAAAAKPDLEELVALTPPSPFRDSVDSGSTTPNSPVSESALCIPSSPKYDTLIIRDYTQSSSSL
T1 sequence (Q14832 23-879): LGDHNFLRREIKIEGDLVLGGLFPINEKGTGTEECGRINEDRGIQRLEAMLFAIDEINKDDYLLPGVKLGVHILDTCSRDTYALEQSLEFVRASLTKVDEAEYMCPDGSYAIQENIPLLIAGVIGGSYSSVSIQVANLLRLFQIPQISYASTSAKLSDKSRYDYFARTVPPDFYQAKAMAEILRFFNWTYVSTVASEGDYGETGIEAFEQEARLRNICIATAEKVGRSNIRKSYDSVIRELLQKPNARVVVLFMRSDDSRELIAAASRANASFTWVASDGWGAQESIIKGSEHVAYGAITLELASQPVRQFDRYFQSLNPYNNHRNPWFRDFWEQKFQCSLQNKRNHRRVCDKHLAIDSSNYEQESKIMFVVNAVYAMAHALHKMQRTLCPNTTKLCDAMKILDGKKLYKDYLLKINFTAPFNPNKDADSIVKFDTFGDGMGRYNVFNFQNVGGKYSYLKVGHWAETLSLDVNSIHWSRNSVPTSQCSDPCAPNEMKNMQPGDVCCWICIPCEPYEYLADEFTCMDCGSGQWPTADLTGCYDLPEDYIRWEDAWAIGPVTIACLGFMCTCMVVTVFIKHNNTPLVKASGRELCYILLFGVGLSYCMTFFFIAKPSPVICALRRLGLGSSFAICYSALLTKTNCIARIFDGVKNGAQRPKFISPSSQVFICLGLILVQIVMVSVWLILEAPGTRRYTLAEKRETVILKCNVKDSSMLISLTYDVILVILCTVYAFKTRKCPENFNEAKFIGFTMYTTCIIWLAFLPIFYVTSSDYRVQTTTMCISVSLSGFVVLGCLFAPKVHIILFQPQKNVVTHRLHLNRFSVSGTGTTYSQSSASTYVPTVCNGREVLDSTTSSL
mGlu2, sequence (Q14416 19-872): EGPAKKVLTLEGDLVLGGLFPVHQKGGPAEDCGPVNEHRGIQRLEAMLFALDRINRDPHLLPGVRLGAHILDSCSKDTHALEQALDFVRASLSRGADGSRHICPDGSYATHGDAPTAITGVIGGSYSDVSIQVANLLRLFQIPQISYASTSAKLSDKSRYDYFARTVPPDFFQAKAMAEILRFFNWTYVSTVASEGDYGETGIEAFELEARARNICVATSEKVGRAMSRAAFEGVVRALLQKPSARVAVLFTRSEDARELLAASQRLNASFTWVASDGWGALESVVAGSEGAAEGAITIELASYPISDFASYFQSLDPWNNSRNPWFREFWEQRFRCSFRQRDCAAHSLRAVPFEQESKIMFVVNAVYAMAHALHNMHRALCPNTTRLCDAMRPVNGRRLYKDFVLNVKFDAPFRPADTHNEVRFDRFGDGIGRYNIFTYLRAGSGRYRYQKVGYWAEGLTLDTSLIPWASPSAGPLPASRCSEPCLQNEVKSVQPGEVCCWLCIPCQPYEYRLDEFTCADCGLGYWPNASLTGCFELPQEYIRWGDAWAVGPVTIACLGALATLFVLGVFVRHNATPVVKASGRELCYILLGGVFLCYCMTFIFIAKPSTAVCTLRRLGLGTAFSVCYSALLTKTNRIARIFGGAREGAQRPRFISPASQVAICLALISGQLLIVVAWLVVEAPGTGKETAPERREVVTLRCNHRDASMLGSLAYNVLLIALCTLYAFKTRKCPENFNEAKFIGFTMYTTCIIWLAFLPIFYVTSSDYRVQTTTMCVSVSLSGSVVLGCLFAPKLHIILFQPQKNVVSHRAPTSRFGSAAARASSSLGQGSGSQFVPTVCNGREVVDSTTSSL

IC50 ([1]; mGlu3 IC50, mGlu3 GIRK assay): ~10 µM and > 10 µM
SMILES: O=C(c1ccc(C#Cc2ccccc2)cc1)N1CCC(O)CC1 [Compound 3]
activity at the six other mGlu subtypes [2]: no activity

block of the glutamate EC80 (in words) ([1]; mGlu3 GIRK assay): full block
SMILES: COc1ccc(C#Cc2ccc(C(=O)N3CCCC(CO)C3)cc2)cc1 (stereo not drawn) [Compound 10e]

CLint scaled [3]: 572 mL/min/kg
principle biotransformation pathway [4]: P450-mediated O-demethylation
block of the glutamate EC80 (in words) ([1]; mGlu3 GIRK assay): full blockade
potency ratio of 11 over 12 ([1]; mGlu3 GIRK assay): 2 fold
selectivity versus mGlu2 [5]: > 15 fold
CLint scaled [6]: 240 mL/min/kg
% Glu Min [7]: 2.1±0.3%
principle biotransformation pathway [8]: P450-mediated O-demethylation
inhibition of off-targets [9]: ≤ 25%
activity/selectivity against mGlu5 (in words) [10]: complete specificity versus mGlu5
potentiation of an EC20 concentration of glutamate at mGlu5 ([10]; mGlu5 calcium assay, PAM mode): inactive
inhibition of an EC80 concentration of glutamate at mGlu5 ([10]; mGlu5 calcium assay, antagonist mode): inactive
brain level [12, 13]: 16.3 µM
plasma level [12, 13]: 9.7 µM
free concentration in rat brain ([12]; based on brain homogenate binding): ~ 163 nM
SMILES: COc1ccc(C#Cc2ccc(C(=O)N3CCC[C@@H](CO)C3)cc2)cc1 [Compound 11]
activity/selectivity against mGlu5 (in words) ([10]; listed as ML289): inactive; also recorded: highly selective versus mGlu5
mechanism of mGlu3 antagonism [11]: non-competitive (allosteric) mechanism of action

block of the glutamate EC80 (in words) ([1]; mGlu3 GIRK assay): full blockade
SMILES: COc1ccc(C#Cc2ccc(C(=O)N3CCC[C@H](CO)C3)cc2)cc1 [Compound 12]

Reference: article PMC3365510 (Bioorganic & medicinal chemistry letters, 2012)
